Results reported in patent US6004967A, “Psoriasis treatment with quinazoline compounds” (priority 1997, dated 1999).
pIC50: −log10 of the molar value.

Tests used:
[1] = in vivo; settings: mouse, in vivo
[2] = in vitro; format: in vitro ADME, human
Protocol: . […] . Thus, biologically relevant concentrations of the drug penetrated the skin and reached the target tissue (epidermis) within 24 hours of application.
. The area of the cadaver skin used was 1.77 cm^2. The calculated volume using this assumption is 17.7 μL. Molar concentration was calculated from the microgram recovery in the epidermis.

[3] = target: T1, IGF-1R (Homo sapiens, UniProt P08069); assay: IGF-1-stimulated receptor phosphorylation ELISA, 3T3-IGF1R; format: cell-based
T1 construct: expressed in transfected cells; host or cells: NIH3T3 mouse fibroblasts, retroviral vector (3T3-IGF1R)
Excerpt: (§1) Cells and Cell Culture. All tumor cell lines were obtained from the American Type Culture Collection (Rockville, Md.), unless otherwise specified. NIH3T3 mouse fibroblasts overexpressing the EGF receptor, IGF-1 receptor, insulin receptor, PDGF-b receptor, or a chimera of the EGF receptor extracellular domain fused to the Her-2 cytoplasmic domain were engineered using retroviral vectors. These cells will be referred to as 3T3-EGFR, 3T3-IGF1R, 3T3-IR, 3T3-PDGF-bR, and 3T3-EGFR/Her-2, respectively. All cell culture media and supplements were purchased from Gibco Life Technologies (Grand Island, N.Y.) unless otherwise specified. […] Cell lines were maintained under standard conditions in culture media recommended by the ATCC, unless otherwise specified. 3T3-EGFR, 3T3-PDGF-bR, and 3T3-EGFR/Her-2 cells were maintained in DMEM containing 10% calf serum (CS) and 2 mM GLN. 3T3-IGF1R and 3T3-IR cells were maintained in DMEM containing 10% FBS and 2 mM GLN. Keratinocytes were obtained from small biopsy specimens of split-thicknessskin from patients with psoriasis and from healthy control donors.
(§2) In vitro functional studies. […] Cell lines examined in receptor phosphorylation ELISA were 3T3-EGFR, 3T3-EGFR/Her-2, 3T3-PDGF-bR, 3T3-IGF1R, and 3T3-IR. For analysis of DNA replication (measured as incorporation of BrdU) and cell cycle progression, 3T3-EGFR and 3T3-PDGF-bR cell lines were used. Cell growth studies were carried out on A431 (EGF-R+), BT474 (Her-2+), and C6 (PDGF-bR+) cell lines.
Receptor phosphorylation was measured by ELISA. EGF-R/Her-2 denotes a chimeric receptor consisting of the extracellular (ligand-binding) domain of EGFR, and the transmembrane and cytoplasmic domains of Her-2.

[4] = system: 3T3-EGFR cells; assay: EGF-driven DNA replication (BrdU incorporation); format: cell-based; settings: Mus musculus, 20 hours
Protocol: as §2

[5] = system: 3T3-EGFR cells; assay: EGF-driven cell cycle progression (propidium iodide, FACS); format: cell-based, mouse; settings: 20 hours
Protocol: as §2

[6] = system: A431; assay: Cell growth (SRB), A431; format: cell-based
Protocol: as §2
(§3) After 4 days, cell density was measured by SRB staining. IC50 values were determined by regression analysis. For these experiments, cell lines whose growth is dependent on naturally-expressed RTK were examined.

[7] = system: BT474; assay: Cell growth (SRB), BT474; format: cell-based; settings: Homo sapiens, BT-474, 96 h; RTK Her-2, 4 day incubation
Protocol: (§4) In vitro functional studies.
as §3

[8] = system: C6; assay: Cell growth (SRB), C6; format: cell-based
Protocol: as §4, §3

[9] = system: psoriatic human keratinocytes; assay: Growth of psoriatic human keratinocytes; format: cell-based
Excerpt: as §1, §2

[10] = Solubility of A1 in pure solvents
[11] = Excipient screening (visual solubility after 24 hrs)
[12] = Plasma levels of A1 after topical application in nu/nu mice

T1 sequence (P08069 741-1367 limits assumed, species assumed): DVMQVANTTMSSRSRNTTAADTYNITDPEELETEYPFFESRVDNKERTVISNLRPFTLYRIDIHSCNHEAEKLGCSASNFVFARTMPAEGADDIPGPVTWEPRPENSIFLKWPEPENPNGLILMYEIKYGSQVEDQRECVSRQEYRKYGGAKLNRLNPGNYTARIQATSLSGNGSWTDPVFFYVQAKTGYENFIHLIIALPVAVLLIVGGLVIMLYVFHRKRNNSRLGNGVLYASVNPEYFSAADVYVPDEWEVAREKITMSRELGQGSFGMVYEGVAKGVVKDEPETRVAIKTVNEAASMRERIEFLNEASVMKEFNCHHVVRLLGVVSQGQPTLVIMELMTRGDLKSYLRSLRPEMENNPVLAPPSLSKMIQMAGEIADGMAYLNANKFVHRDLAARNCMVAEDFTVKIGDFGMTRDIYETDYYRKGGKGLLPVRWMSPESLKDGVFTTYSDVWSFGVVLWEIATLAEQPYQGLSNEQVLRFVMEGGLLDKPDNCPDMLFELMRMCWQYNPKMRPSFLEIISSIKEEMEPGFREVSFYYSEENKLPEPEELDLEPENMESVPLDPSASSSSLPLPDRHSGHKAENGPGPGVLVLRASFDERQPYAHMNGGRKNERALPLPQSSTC
T1 sequence (P08069 31-736 partner limits assumed, species assumed): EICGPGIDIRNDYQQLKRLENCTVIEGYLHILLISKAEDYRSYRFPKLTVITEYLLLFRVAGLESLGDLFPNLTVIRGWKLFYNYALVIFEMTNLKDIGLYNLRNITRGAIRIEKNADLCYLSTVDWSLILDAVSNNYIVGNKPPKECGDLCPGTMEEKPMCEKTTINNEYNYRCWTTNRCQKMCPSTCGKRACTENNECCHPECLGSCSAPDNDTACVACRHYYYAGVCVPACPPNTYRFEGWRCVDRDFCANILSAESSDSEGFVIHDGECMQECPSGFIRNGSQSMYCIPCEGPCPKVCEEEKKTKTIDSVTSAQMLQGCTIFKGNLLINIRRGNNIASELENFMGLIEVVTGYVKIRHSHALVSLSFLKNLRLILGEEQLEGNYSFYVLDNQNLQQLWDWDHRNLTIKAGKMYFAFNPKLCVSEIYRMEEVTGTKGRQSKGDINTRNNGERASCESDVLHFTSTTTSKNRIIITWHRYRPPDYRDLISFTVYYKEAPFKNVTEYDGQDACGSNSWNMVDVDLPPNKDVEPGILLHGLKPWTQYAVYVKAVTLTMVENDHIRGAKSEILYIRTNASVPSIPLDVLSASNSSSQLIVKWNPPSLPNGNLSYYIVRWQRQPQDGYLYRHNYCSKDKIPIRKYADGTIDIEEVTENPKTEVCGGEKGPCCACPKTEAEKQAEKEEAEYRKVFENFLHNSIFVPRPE

COc1cc2ncnc(Nc3cccc(Br)c3)c2cc1OC [A1, 4-(3-Bromophenylamino)-6,7-dimethoxyquinazoline]
toxicity (in words) [1]: low toxicity | skin penetration (in words) [2]: penetrated human cadaver skin, reaching biologically effective concentrations in the epidermis | concentration at 24 h ([2]; human, topical or ocular, concentration in the epidermis after 24 hours): 141 to 355 µM | activity against insulin-like growth factor-1 receptor (in words) [3]: little or no activity | inhibition of receptor phosphorylation, IGF-1R ([3]; concentrations up to 100 μM): not inhibited | pIC50 ([3]; ligand IGF-1, 2 hr pretreatment): < 4.00 | pIC50 [4]: 7.52 | pIC50 [5]: 7.47 | growth of cell lines driven by the EGF-R/Her family of RTK (in words) [6]: preferentially inhibited | pIC50 ([6]; Homo sapiens, A-431, 96 h): 5.80 | pIC50 [7]: 6.05 | inhibition of PDGF-bR-dependent cell growth (in words) [8]: did not inhibit | pIC50 ([8]; Rattus norvegicus, C6, 96 h, RTK PDGF-bR, 4 day incubation): < 4.00 | inhibition of psoriatic skin cell / keratinocyte proliferation in vitro (in words) [9]: capable of inhibiting | IC99 ([9]; Homo sapiens, Keratinocyte, 120 h, read-out: IC99, inhibition of psoriatic keratinocyte proliferation): ~14 µM | pIC50 ([9]; Homo sapiens, Keratinocyte, read-out: IC50, growth of psoriatic keratinocytes): > 6.00 | Not Soluble at ([10]; Benzyl Alcohol, NF): 4.77 % w/w | Soluble at ([10]; Benzyl Alcohol, NF): 3.60 % w/w | Not Soluble at ([10]; Benzyl Benzoate, USP (printed Betizyl Berizoate)): 0.85 % w/w | Not Soluble at ([10]; Caprylic/Capric Triglyceride (Miglyol 812)): 0.84 % w/w | Not Soluble at ([10]; Dehydrated Alcohol, USP): 0.98 % w/w | Soluble at ([10]; Dehydrated Alcohol, USP): 0.76 % w/w | compatibility / solubility ([10]; Diethyl Sebacate): not compatible (yellow) | Not Soluble at ([10]; Diisopropyl Adipate): 0.66 % w/w | Not Soluble at ([10]; Dimethyl isosorbide): 0.97 % w/w | Not Soluble at ([10]; Ethoxydiglycol (Transcutol)): 3.74 % w/w | Soluble at ([10]; Ethoxydiglycol (Transcutol)): 2.41 % w/w | Not Soluble at ([10]; Finsolve TN (Finetex)): 1.27 % w/w | Not Soluble at ([10]; Hexylene Glycol): 2.05 % w/w | Soluble at ([10]; Hexylene Glycol): 0.98 % w/w | Not Soluble at ([10]; Isopropyl Alcohol, 99%): 1.25 % w/w | Not Soluble at ([10]; Isotearyl Alcohol): 0.99 % w/w | Soluble at ([10]; Laureth 4): 4.10 % w/w | Not Soluble at ([10]; Octyldodecanol, NF): 0.68 % w/w | Not Soluble at ([10]; Oleic Acid, NF): 1.00 % w/w | Not Soluble at ([10]; Polyethylene Glycol 300, USP): 2.10 % w/w | Soluble at ([10]; Polyethylene Glycol 300, USP): 1.00 % w/w | Not Soluble at ([10]; Polyethylene Glycol 400, USP): 2.44 % w/w | Soluble at ([10]; Polyethylene Glycol 400, USP): 1.76 % w/w | Not Soluble at ([10]; Polysorbate 20, NF): 0.99 % w/w | Not Soluble at ([10]; Propylene Carbonate, NF): 1.46 % w/w | Soluble at ([10]; Propylene Carbonate, NF): 0.98 % w/w | Not Soluble at ([10]; Propylene Glycol, USP): 0.59 % w/w | Not Soluble at ([10]; Triacetin USP): 0.96 % w/w | solubility in nonirritant solvents (in words) ([10]; among anticancer compounds): relative high solubility in nonirritant solvents | Solubility After 24 Hrs. ([11]; 1.0 N HCl): Insoluble/Yellow | Solubility After 24 Hrs. ([11]; Benzyl Alcohol): Soluble | Solubility After 24 Hrs. ([11]; Conc. NaOH): Insoluble | Solubility After 24 Hrs. ([11]; Distilled H2O): Insoluble | Solubility After 24 Hrs. ([11]; EtOH/Poly-80 50:50, [Drug] 10 mg/mL): Slightly Soluble | Solubility After 24 Hrs. ([11]; Ethanol): Partially Soluble | Solubility After 24 Hrs. ([11]; Isopropyl Myristate): Insoluble/Cloudy | Solubility After 24 Hrs. ([11]; Oleic Acid): Insoluble/Yellow/Cloudy | Solubility After 24 Hrs. ([11]; PEG-300): Soluble | Solubility After 24 Hrs. ([11]; Polysorbate-80, [Drug] 10 mg/mL): Slightly Soluble | Solubility After 24 Hrs. ([11]; Propylene Carbonate): Soluble/80C/10 min. | Solubility After 24 Hrs. ([11]; Propylene Glycol): Slightly Soluble/Clear/ | Solubility After 24 Hrs. ([11]; Triacetin): Partially Soluble | concentration at 0.5 h ([12]; mouse, plasma, topical or ocular): < 2 µg/mL | discomfort or increased grooming behavior ([12]; topical 2% ointment, nu/nu mice): no discomfort or increased grooming behavior
